In assay [1] the target is HSP90α (Homo sapiens (Human), UniProt P07900). Kind of assay: Fluorescence polarization (FP) HSP90-alpha target binding assay. To be noted: fluorescence polarization; read-out: Target binding ability HSP90α FP IC50. The essentials: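 Displacement of 5 nM GM-BODIPY from 30 nM HSP90 measured by fluorescence polarization (ex 485/em 535 nm). Buffer: 100 mM Tris-Cl pH 7.4, 20 mM KCl, 6 mM MgCl2, 5 μg/mL BSA. Incubation 12–16 h at 4 °C. Percent inhibition from mP relative to compound-free and tracer-only controls.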

Assay [2] concerns human colon cancer cell line HCT116. Kind of assay: Tumor cell growth inhibition, SRB staining, HCT116. To be noted: HCT-116, HCT116, 72 h. In kind it is cell-based. On the procedure:
The growth inhibition assay of tumor cells was detected by sulforhodamine B (SRB) staining method. The specific steps were as follows: inoculating human colon cancer cell line HCT116 and human lung cancer cell line A549 (purchased from American Type Culture Collection, ATCC) at the logarithmic growth phase into a 96-well micro culture plate at an appropriate concentration of 4000 cells/well, 100 μL for each well; after culturing overnight, adding with the compound at different concentrations (100, 10, 1, 0.1, 0.01 μM) to react for 72 h, wherein triplicate wells were set up for each concentration, and solvent control wells with the corresponding concentration and zero wells without cells were also set up. After the completion of the reaction, the culture medium was removed from the adherent cells, the later was added with 10% (w/v) trichloroacetic acid (100 μL/well) at 4° C. to fix for 1 h, and then washed five times with distilled water. After drying at room temperature, 100 μL of SRB solution (4 mg/mL, dissolved in 1% glacial acetic acid) was added into each well, followed by incubation and staining for 15 min at room temperature. The uncombined SRB was removed by washing five times with 1% glacial acetic acid. After drying at room temperature, 100 μL of 10 mM Tris solution was added into each well, and the optical density (OD) at 515 nm was measured by a […] microplate reader. The inhibition rate of the drug to tumor cell growth was calculated according to the following equation: Inhibition rate (%)=(OD of control well-OD of drug well)/OD of control well×100%. The experiment was repeated twice.
In general terms: Sulforhodamine B stains cellular protein and so reports cell mass.

The test system of assay [3] is human lung cancer cell line A549. Kind of assay: Tumor cell growth inhibition, SRB staining, A549. In kind it is cell-based. To be noted: A549, 72 h. The essentials: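 Growth inhibition by SRB staining: 4000 cells/well seeded overnight, then compound at 100, 10, 1, 0.1 and 0.01 μM for 72 h in triplicate. Fixed with TCA, OD read at 515 nm. Inhibition rate taken against solvent control; experiment done twice.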

Assay [4] relates to A549 tumor cells. Kind of assay: In vivo efficacy, A549 transplantation tumor in nude mice. To be noted: A549 xenograft, 50 mg/kg intravenously twice a week. Here is the method:
A549 tumor cells were subcutaneously inoculated in the right armpit of nude mice in 5×10^6 cells/mouse, to form a transplantion tumor. When the volume reached 100-200 mm^3, the animals were randomly divided according to tumor volume, into the negative control group (n=5), the positive control group groups (n=5 in each group), and the experimental groups (n=5 in each group). The experimental groups were respectively injected intravenously with the positive drug Luminespib (50 mg/kg) and compound 1 (50 mg/kg) at different concentrations, twice a week, and the negative control group was administrated an equal amount of solvent simultaneously. The length (A) and width (B) of the tumor were measured twice a week with a vernier caliper, and the tumor volume was calculated according to V=A×B^2/2. Relative tumor volume (RTV) was calculated as follows: RTV=Vt/V0, wherein Vt is the tumor volume at the end of the administration, and V0 is the tumor volume measured before separation and administration. The pharmacodynamic evaluation index of antitumor activity is relative tumor proliferation rate T/C (%), and the calculation formula is: T/C (%)=TRTV/CRTV×100%, wherein TRTV: RTV of the treatment group; CRTV: RTV of the negative control group. Efficacy evaluation criteria: T/C %>60% is inefficient; T/C %≤60% and P<0.05 by statistical treatment is effective. The tumor growth inhibition rate (TGI) was calculated as follows: TGI (%)={[(CVt−CV0)−(TVt−TV0)]/(CVt−CV0)}×100%
Wherein, CVt is the tumor volume of the control group at the end of the administration; CV0 is the tumor volume of the control group before separation and administration; TVt is the tumor volume of the administration group at the end of the administration; and TV0 is the tumor volume of the administration group before separation and administration. The difference in tumor volume between the administration group and the control group was examined by t-test. At the same time, the body weights of nude mice in each group were weighed twice a week to preliminarily evaluate the toxic side effects of the drug.

As a reminder, the IC50 is the midpoint of a concentration-inhibition curve. For orientation: EC50 means the concentration at which the effect is half-maximal. Lower therefore signals an effect from little substance. Turning to `CCNC(=O)c1noc(-c2cc(C(C)C)c(O)cc2O)c1-c1ccc2c(c1)CCN(C)C2` [Example 1, 5-(2,4-dihydroxyl-5-isopropylphenyl)-N-ethyl-4-(2-methyl-1,2,3,4-tetrahydroisoquinolin-6-yl)isoxazole-3-carboxamide], the IC50 in assay [1] was less than 20 nM. Besides, the EC50 in assay [2] and in assay [3] was less than 20 nM throughout. Further, the “TGI (%) Day 7” value in assay [4] (Day 7) was 20%. In addition, the “TGI (%) Day 11” value in assay [4] (Day 11) was determined as 40%. The “TGI (%) Day 14 (stopping administration)” value in assay [4] (Day 14) was 63%. Also, in assay [4] (Day 17), the “TGI (%) Day 17” value was determined as 71%. In assay [4] (Day 28), the “TGI (%) Day 28” value is listed as 60%.

(Values after patent US10035792B2, “Resorcinol derivative as HSP90 inhibitor” (priority 2015, dated 2018).)
